Experiments:
[1] = target: T1, Aldehyde Dehydrogenase (Yeast ALDH) (Saccharomyces cerevisiae, UniProt P46367); test: ALDH assay by spectroscopic method (screening for ALDH activity); format: biochemical; conditions: substrate reagent 50 μM in 0.1M TrisHCl pH 8.0, change in absorbance or fluorescence as a function of time
T1 sequence (P46367 25-519): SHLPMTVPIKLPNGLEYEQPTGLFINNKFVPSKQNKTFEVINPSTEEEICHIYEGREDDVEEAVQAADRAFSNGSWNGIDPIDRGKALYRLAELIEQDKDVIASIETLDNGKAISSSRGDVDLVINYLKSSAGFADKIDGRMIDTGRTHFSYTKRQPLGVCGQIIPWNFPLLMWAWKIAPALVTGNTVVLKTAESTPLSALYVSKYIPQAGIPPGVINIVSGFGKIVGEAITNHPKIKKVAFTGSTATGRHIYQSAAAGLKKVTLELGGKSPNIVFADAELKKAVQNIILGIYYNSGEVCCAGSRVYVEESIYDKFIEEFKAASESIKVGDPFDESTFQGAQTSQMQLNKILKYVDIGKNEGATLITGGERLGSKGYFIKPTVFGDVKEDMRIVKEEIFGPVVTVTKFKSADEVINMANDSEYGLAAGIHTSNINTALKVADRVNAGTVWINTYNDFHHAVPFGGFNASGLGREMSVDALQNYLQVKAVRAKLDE
From the text: Aldehyde Dehydrogenase is an enzyme that acts on aldehydes as substrates and converts them to acid (products).
Designing and Standardization of ALDH Assay: • following the conversion of NAD+ to NADH typically one does the ALDH assays.
[drawing 72] • The formation of NADH is monitored by measuring the absorbance at 340 nm. However, before employing this method, the compounds were screened for their spectral properties, especially to avoid any interference in absorbance either from the substrate or the product.
Such compounds were further screened for their fluorescence properties by recording their excitation/emission wavelengths.
ALDH Assay by Spectroscopic Method: • The ALDH assay is designed to measure either the utilization of the substrate or formation of product by measuring at their unique wavelengths (Absorbance or Fluorescence).
All the spectral studies for the compounds were carried out in 0.1M Tris HCl pH 8.0 buffer. CSCT Compounds were initially dissolved in Methanol (˜2.0 mg/mL). The compounds were further diluted in 0.1M Tris HCl pH 8.0 buffer (concentration ranging from ˜20 to 50 μg/mL). The Spectra was recorded using Spectramax M5.
The ALDH activity can be followed either by monitoring the conversion of β-NAD^+ to β-NADH or by directly monitoring the product/substrate. The conversion of β-NAD^+ to β-NADH yields increasing in absorbance at 340 nm. If either the substrate/products have any spectral interference at this wavelength then unique absorbance/fluorescence wavelength of either product/substrate are used. The measurements were taken on Spectromax M5.
• 1. Reagent 1: 1 M Tris HCl Buffer, pH 8.0 at 25° C. (Prepare 50 ml in deionized water using Trizma Base, Sigma Prod. No. T-1503. Adjust to pH 8.0 at 25° C. with 1 M HCl.) • 2. Reagent 2: 20 mM β-Nicotinamide Adenine Dinucleotide, Oxidized Form, Solution (β-NAD^+) (Prepare 1 ml in deionized water using β-Nicotinamide Adenine Dinucleotide, PREPARE FRESH). • 3. Reagent 3: 3 M Potassium Chloride Solution (KCl) (Prepare 1 ml in deionized water using Potassium Chloride). • 4. Reagent 4: 1 M 2-Mercaptoethanol Solution (2-ME) (Prepare 1 ml in deionized water using 2-Mercaptoethanol. PREPARE FRESH.) • 5. Reagent 5: 100 mM Tris HCl Buffer with 0.02% (w/v) Bovine Serum Albumin, pH 8.0 at 25° C. (for Enzyme Dilution). • 6. Reagent 6: Aldehyde Dehydrogenase Enzyme Solution (Yeast ALDH). Immediately before use, prepare a solution containing 0.5-1 unit/ml of Aldehyde Dehydrogenase in cold Reagent 5).
Pipette (in milliliters) the following reagents into vial:
In a 3.00 ml reaction mix, the final concentrations are 103 mM Tris HCl Buffer (Reagent 1), 0.67 mM β-nicotinamide adenine dinucleotide (Reagent 2), 100 mM potassium chloride (Reagent 3), 10 mM 2-mercaptoethanol (Reagent 4), 0.0007% (w/v) bovine serum albumin (Reagent 5) and 0.05-0.1 unit aldehyde dehydrogenase (Reagent 6).

ALDH = test: Cell based ALDH assay: competition against ALDEFLUOR in SK-BR-3 cells, FACS
Protocol: Briefly, the compound was dissolved in DMSO and competed against ALDEFLUOR™, a BODIPY-conjugated ALDH substrate, in a cell-based assay using SK-BR-3 cells. The BODIPY fluorescence in the cell samples were measured using FACS at 488 nm. The median fluorescence of each sample was measured and fitted to a sigmoidal dose-response curve for calculation of IC50 using Prism Graphpad.
6-(2-fluoroethyloxy)-2-naphthaldehyde was dissolved and diluted in DMSO prior to use.
SK-BR-3 cells, a cell line reported to have a high expression of ALDH+ cells, was used for all experiments. The cells were cultured in RPMI media supplemented with 10% fetal bovine serum and 2 mM L-glutamine, in 37° C., 5% CO2. On the day of assay, cells were harvested by trypsination, centrifuged, and re-suspended in ALDEFLUOR™ assay buffer to a concentration of 1×10^6 cells.
The compound was competed against ALDEFLUOR™, a BODIPY-conjugated ALDH substrate. […] Following incubation at 37° C., the fluorescence was measured in each sample by FACS at 488 nm. […]
The median fluorescence of each sample was calculated, and the values were then normalized and fitted to a dose-response curve for calculation of IC50 using Prism Graphpad.

| Structure (SMILES) | Comments (ALDH assay screening result) [1] | Displacement of ALDEFLUOR (decrease in fluorescence with increasing compound concentration) (ALDH; FACS at 488 nm) | IC50 (ALDH; competition against ALDEFLUOR, BODIPY fluorescence by FACS at 488 nm, compound 0.005-50 μM) [nM] |
| --- | --- | --- | --- |
| O=Cc1ccc(I)cc1 [4-Iodobenzaldehyde] | Active | – | – |
| COc1cccc(C=O)c1 [3-anisladehyde] | Active | – | – |
| O=Cc1ccc2cc(OCCF)ccc2c1 [Example 3A, 6-(2-fluoroethyloxy)-2-naphthaldehyde] | Active | displaced ALDEFLUOR™ | 330 |
| O=Cc1ccc2ccccc2c1 [2-Naphthaldehyde] | Active | – | – |
| O=CCCNC(=O)c1ccc(F)cc1 [Example 2, (2-formylethyl)-4-fluorobenzamide] | Not active | – | – |
| O=Cc1ccc(F)cc1 [4-fluorobenzaldehyde] | Active | – | – |
| O=Cc1ccc2cc(OCCCF)ccc2c1 [Example 3, 6-(3-fluororpropyloxy)-2-naphthaldehyde] | Active | – | – |
| COc1ccc2cc(C=O)ccc2c1 [6-Methoxy-2-Naphthaldehyde] | Active | – | – |

Source: patent publication US20130101509A1, “IMAGING AND RADIOTHERAPY METHODS” (GENERAL ELECTRIC COMPANY, priority 2008, published 2013)
